Reference: PubChem BioAssay AID2060348 (Molecular Pharmacology Branch, DTP, NCI, 2025)
Several values for one entry are separate records, joined by “and”; a condition that tells them apart may be missing. Equal values may be shown once.

Tested on: 885724-159-R-J1-PDC spheroids viability
Assay: Anticancer human tumor 885724-159-R-J1-PDC patient-derived pancreatic adenocarcinoma cell line growth inhibition [TAK]
Conditions: spheroids with HUVEC and MSC; for viability, T/C: stronger effect = lower value
In short: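 Tumor cells were grown as spheroids with HUVEC and hMSC (60:25:15) and treated with targeted agents combined with TAK-243 or ipatasertib. Drugs were tested in half-log steps down from near the clinical Cmax, or from 10 microM where Cmax was unknown.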

[1] = curve of first compound, second compound 0.3 µM
[2] = curve of first compound, second compound 0.949 µM
[3] = curve of first compound, second compound 3 µM
[4] = curve of first compound, second compound 9.49 µM
[5] = curve of first compound, second compound 30 µM
[6] = second compound 0.3 µM, first compound 0.0316 µM
[7] = second compound 0.3 µM, first compound 0.1 µM
[8] = second compound 0.3 µM, first compound 0.316 µM
[9] = second compound 0.3 µM, first compound 1 µM
[10] = second compound 0.3 µM, first compound 3.16 µM
[11] = second compound 0.3 µM, first compound 10 µM
[12] = second compound 0.949 µM, first compound 0.0316 µM
[13] = second compound 0.949 µM, first compound 0.1 µM
[14] = second compound 0.949 µM, first compound 0.316 µM
[15] = second compound 0.949 µM, first compound 1 µM
[16] = second compound 0.949 µM, first compound 3.16 µM
[17] = second compound 0.949 µM, first compound 10 µM
[18] = second compound 3 µM, first compound 0.0316 µM
[19] = second compound 3 µM, first compound 0.1 µM
[20] = second compound 3 µM, first compound 0.316 µM
[21] = second compound 3 µM, first compound 1 µM
[22] = second compound 3 µM, first compound 3.16 µM
[23] = second compound 3 µM, first compound 10 µM
[24] = second compound 9.49 µM, first compound 0.0316 µM
[25] = second compound 9.49 µM, first compound 0.1 µM
[26] = second compound 9.49 µM, first compound 0.316 µM
[27] = second compound 9.49 µM, first compound 1 µM
[28] = second compound 9.49 µM, first compound 3.16 µM
[29] = second compound 9.49 µM, first compound 10 µM
[30] = second compound 30 µM, first compound 0.0316 µM
[31] = second compound 30 µM, first compound 0.1 µM
[32] = second compound 30 µM, first compound 0.316 µM
[33] = second compound 30 µM, first compound 1 µM
[34] = second compound 30 µM, first compound 3.16 µM
[35] = second compound 30 µM, first compound 10 µM
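Further: spheroids exposed to drugs for seven days.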
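Wherever viability, T/C is given: 100% = DMSO vehicle control viability.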

## CC(C)(C)c1nc(-c2cccc(NS(=O)(=O)c3c(F)cccc3F)c2F)c(-c2ccnc(N)n2)s1 + CC(C)NCC(C(=O)N1CCN(c2ncnc3c2C(C)CC3O)CC1)c1ccc(Cl)cc1
[1]
  IC50: > 10 µM
[2]
  IC50: > 10 µM
[3]
  IC50: > 10 µM
[4]
  IC50: 8.87 µM
[5]
  IC50: < 0.0316 µM
[6]
  viability, T/C: 85.2%
[7]
  viability, T/C: 101%
[8]
  viability, T/C: 112%
[9]
  viability, T/C: 134%
[10]
  viability, T/C: 134%
[11]
  viability, T/C: 121%
[12]
  viability, T/C: 72.3%
[13]
  viability, T/C: 100%
[14]
  viability, T/C: 111%
[15]
  viability, T/C: 117%
[16]
  viability, T/C: 92.2%
[17]
  viability, T/C: 80.5%
[18]
  viability, T/C: 68.2%
[19]
  viability, T/C: 90.7%
[20]
  viability, T/C: 94%
[21]
  viability, T/C: 96%
[22]
  viability, T/C: 73.4%
[23]
  viability, T/C: 57.6%
[24]
  viability, T/C: 57.1%
[25]
  viability, T/C: 71.3%
[26]
  viability, T/C: 77%
[27]
  viability, T/C: 76.1%
[28]
  viability, T/C: 56.1%
[29]
  viability, T/C: 49.3%
[30]
  viability, T/C: 37.7%
[31]
  viability, T/C: 41.3%
[32]
  viability, T/C: 46.9%
[33]
  viability, T/C: 42.7%
[34]
  viability, T/C: 41.6%
[35]
  viability, T/C: 37.7%

## CC(=O)Nc1cccc(-n2c(=O)n(C3CC3)c(=O)c3c(Nc4ccc(I)cc4F)n(C)c(=O)c(C)c32)c1
Compound 94.9 pM
  viability, T/C: 89.3% and 117%
Compound 0.0003 µM
  viability, T/C: 86.7% and 71.2%
Compound 0.000949 µM
  viability, T/C: 53.9% and 55.8%
Compound 0.003 µM
  viability, T/C: 37.1% and 40.6%
Compound 0.00949 µM
  viability, T/C: 26.4% and 30.2%
Compound 0.03 µM
  viability, T/C: 20.4%
Curve of compound
  IC50: 0.00138 µM and 0.00118 µM

## CC(C)NCC(C(=O)N1CCN(c2ncnc3c2C(C)CC3O)CC1)c1ccc(Cl)cc1 (configuration not stated)
Compound 0.3 µM
  viability, T/C: 64.1% [middle of 10 runs]
Compound 0.949 µM
  viability, T/C: 60.5% [middle of 10 runs]
Compound 3 µM
  viability, T/C: 55.2% [middle of 10 runs]
Compound 9.49 µM
  viability, T/C: 47.5% [middle of 10 runs]
Compound 30 µM
  viability, T/C: 32.8% [middle of 10 runs]

## Cc1nc(NC(=O)N2CCCC2C(N)=O)sc1-c1ccnc(C(C)(C)C(F)(F)F)c1 (configuration not stated) + CC(C)NCC(C(=O)N1CCN(c2ncnc3c2C(C)CC3O)CC1)c1ccc(Cl)cc1
[1]
  IC50: 0.154 µM
[2]
  IC50: < 0.0316 µM
[3]
  IC50: < 0.0316 µM
[4]
  IC50: < 0.0316 µM
[5]
  IC50: < 0.0316 µM
[6]
  viability, T/C: 60.9%
[7]
  viability, T/C: 46.4%
[8]
  viability, T/C: 47.6%
[9]
  viability, T/C: 41.5%
[10]
  viability, T/C: 27.5%
[11]
  viability, T/C: 19.4%
[12]
  viability, T/C: 47.9%
[13]
  viability, T/C: 44.2%
[14]
  viability, T/C: 35.9%
[15]
  viability, T/C: 27.8%
[16]
  viability, T/C: 20.8%
[17]
  viability, T/C: 14.3%
[18]
  viability, T/C: 44.5%
[19]
  viability, T/C: 43.5%
[20]
  viability, T/C: 28.9%
[21]
  viability, T/C: 21.3%
[22]
  viability, T/C: 19%
[23]
  viability, T/C: 12.7%
[24]
  viability, T/C: 40%
[25]
  viability, T/C: 35.2%
[26]
  viability, T/C: 26.9%
[27]
  viability, T/C: 19.4%
[28]
  viability, T/C: 14.3%
[29]
  viability, T/C: 9.85%
[30]
  viability, T/C: 28.8%
[31]
  viability, T/C: 26.4%
[32]
  viability, T/C: 19.6%
[33]
  viability, T/C: 14.3%
[34]
  viability, T/C: 10.7%
[35]
  viability, T/C: 6.4%
